# Assay results reported in patent US20240018122A1, “PYRIDAZINYL AMINO DERIVATIVES AS ALK5 INHIBITORS” (CHIESI FARMACEUTICI S.P.A., priority 2020, published 2024).
# Molecular target: human ALK5 (Homo sapiens (Human), UniProt P36897)
# Experiment: ADP-GLO Kinases assay, inhibitory activity on ALK5
# Format: biochemical
# Settings: not given
# Chain of human ALK5 (P36897 80-503 limits assumed): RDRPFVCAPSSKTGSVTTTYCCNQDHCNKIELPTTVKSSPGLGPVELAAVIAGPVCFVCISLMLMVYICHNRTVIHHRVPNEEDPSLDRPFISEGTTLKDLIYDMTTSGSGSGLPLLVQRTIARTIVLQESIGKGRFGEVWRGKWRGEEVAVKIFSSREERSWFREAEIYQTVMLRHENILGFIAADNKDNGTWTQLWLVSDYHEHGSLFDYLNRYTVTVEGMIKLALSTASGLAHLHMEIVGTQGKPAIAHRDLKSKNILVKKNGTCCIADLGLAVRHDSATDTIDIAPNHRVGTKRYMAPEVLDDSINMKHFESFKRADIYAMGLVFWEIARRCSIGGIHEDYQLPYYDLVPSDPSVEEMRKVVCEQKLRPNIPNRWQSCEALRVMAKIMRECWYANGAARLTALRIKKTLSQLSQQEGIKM
row,SMILES,IC50 [nM]
1,"Cc1nnc(-c2cc(Cl)ccc2F)cc1Nc1ccnc2cc(OC(=O)N3C[C@@H]4C[C@H]3CN4C)ccc12 [Example 160, 4-{[6-(5-Chloro-2-Fluorophenyl)-3-Methylpyridazin-4-Yl]Amino}Quinolin-7-Yl (1S,4S)-5-Methyl-2,5-Diazabicyclo[2.2.1]Heptane-2-Carboxylate]",< 1

# Same assay, conditions: purified recombinant human ALK5 2.6 nM, TGFβ1 peptide substrate, 25° C, 150 min incubation, ADP-Glo detection; read-out: ALK5 IC50
row,IC50 [nM],SMILES
1,< 1,"Cc1nnc(-c2cc(Cl)ccc2F)cc1Nc1ccnc(NC(=O)CN2CCOCC2)c1 [Example 117, N-(4-{[6-(5-Chloro-2-Fluorophenyl)-3-Methylpyridazin-4-Yl]Amino}Pyridin-2-Yl)-2-(Morpholin-4-Yl)Acetamide]"
2,< 1,"COC(=O)C1CN(CCC(=O)Nc2cc(Nc3cc(-c4cc(Cl)ccc4F)nnc3C)ccn2)CCN1C(C)C (centres unmarked) [Example 113, Methyl 4-{2-[(4-{[6-(5-Chloro-2-Fluorophenyl)-3-Methylpyridazin-4-Yl]Amino}Pyridin-2-Yl)Carbamoyl]Ethyl}-1-(Propan-2-Yl)Piperazine-2-Carboxylate]"
3,< 1,"COC(=O)CC1CN(CCC(=O)Nc2cc(Nc3cc(-c4cc(Cl)ccc4F)nnc3C)ccn2)CCN1C (centres unmarked) [Example 98, Methyl 2-(4-{2-[(4-{[6-(5-Chloro-2-Fluorophenyl)-3-Methylpyridazin-4-Yl]Amino}Pyridin-2-Yl)Carbamoyl]Ethyl}-1-Methylpiperazin-2-Yl)Acetate]"
4,< 1,"Cc1nnc(-c2cc(Cl)ccc2F)cc1Nc1ccnc(NC(=O)C[N+]2([O-])CCOCC2)c1 [Example 123, 4-{[(4-{[6-(5-Chloro-2-Fluorophenyl)-3-Methylpyridazin-4-Yl]Amino}Pyridin-2-Yl)Carbamoyl]Methyl}Morpholin-4-Ium-4-Olate]"
5,< 1,"COC(=O)NCCN1CCN(CC(=O)Nc2cc(Nc3cc(-c4cc(Cl)ccc4F)nnc3C)ccn2)CC1 [Example 109, methyl N-[2-(4-{[(4-{[6-(5-chloro-2-fluorophenyl)-3-methylpyridazin-4-yl]amino}pyridin-2-yl)carbamoyl]methyl}piperazin-1-yl)ethyl]carbamate]"
6,< 1,"Cc1nnc(-c2cc(Cl)ccc2F)cc1Nc1ccnc(NC(=O)CCN2CC3(CN(C)C3)C2)c1 [Example 138, N-(4-{[6-(5-Chloro-2-Fluorophenyl)-3-Methylpyridazin-4-Yl]Amino}Pyridin-2-Yl)-3-{6-Methyl-2,6-Diazaspiro[3.3]Heptan-2-Yl}Propanamide]"
7,< 1,"COC(=O)C1CN(CCC(=O)Nc2cc(Nc3cc(-c4cc(Cl)ccc4F)nnc3C)ccn2)CCN1C (centres unmarked) [Example 94, Methyl 4-{2-[(4-{[6-(5-Chloro-2-Fluorophenyl)-3-Methylpyridazin-4-Yl]Amino}Pyridin-2-Yl)Carbamoyl]Ethyl}-1-Methylpiperazine-2-Carboxylate]"
8,< 1,"CN(CCOc1ccc2c(Nc3cnnc(-c4cc(Cl)ccc4F)c3)ccnc2c1)C1COC1 [Example 42, N-[6-(5-Chloro-2-Fluorophenyl)Pyridazin-4-Yl]-7-{2-[Methyl(Oxetan-3-Yl)Amino]Ethoxy}Quinolin-4-Amine]"
9,< 1,"Cc1nnc(-c2cc(Cl)ccc2F)cc1Nc1ccnc(NC(=O)CCN2CCN(CCN)CC2)c1 [Example 76, 3-[4-(2-Aminoethyl)Piperazin-1-Yl]-N-(4-{[6-(5-Chloro-2-Fluorophenyl)-3-Methylpyridazin-4-Yl]Amino}Pyridin-2-Yl)Propanamide]"
10,< 1,"CN1CC2(CCN(CC(=O)Nc3cc(Nc4cc(-c5cc(Cl)ccc5F)nnc4CO)ccn3)CC2)C1 [Example 179, N-(4-{[6-(5-Chloro-2-Fluorophenyl)-3-(Hydroxymethyl)Pyridazin-4-Yl]Amino}Pyridin-2-Yl)-2-{2-Methyl-2,7-Diazaspiro[3.5]Nonan-7-Yl}Acetamide]"
11,1 to 5,O=C(CCN1CCCN(CC(F)(F)F)C1)Nc1cc(Nc2cnnc(-c3cc(Cl)ccc3F)c2)ccn1 [Example 59]
12,< 1,"Cc1nnc(-c2cc(Cl)ccc2F)cc1Nc1ccnc(NC(=O)CCN2CCN(C)CC2CO)c1 (centres unmarked) [Example 163, N-(4-{[6-(5-chloro-2-fluorophenyl)-3-methylpyridazin-4-yl]amino}pyridin-2-yl)-3-[2-(hydroxymethyl)-4-methylpiperazin-1-yl]propanamide]"
13,< 1,"COC(=O)c1cc2c(Nc3cnnc(-c4cc(Cl)ccc4F)c3)ccnc2cc1OCCN1CCN(C)CC1 [Example 171, Methyl 4-{[6-(5-Chloro-2-Fluorophenyl)Pyridazin-4-Yl]Amino}-7-[2-(4-Methylpiperazin-1-Yl)Ethoxy]Quinoline-6-Carboxylate]"

# The next lines start with the compound.
row,SMILES,IC50 [nM]
1,"COC(=O)N(C)CCN1CCN(CC(=O)Nc2cc(Nc3cc(-c4cc(Cl)ccc4F)nnc3CO)ccn2)CC1 [Example 175, Methyl N-[2-(4-{[(4-{[6-(5-Chloro-2-Fluorophenyl)-3-(Hydroxymethyl)Pyridazin-4-Yl]Amino}Pyridin-2-Yl)Carbamoyl]Methyl}Piperazin-1-Yl)Ethyl]-N-Methylcarbamate]",< 1
2,"CN1CCN(CCNC(=O)c2ccc3c(Nc4cnnc(-c5cc(Cl)ccc5F)c4)ccnc3c2)CC1 [Example 13, 4-{[6-(5-Chloro-2-Fluorophenyl)Pyridazin-4-Yl]Amino}-N-[3-(4-Methylpiperazin-1-Yl)Ethyl]Quinoline-7-Carboxamide]",< 1
3,"CN1CCC(Oc2ccc3c(Nc4cnnc(-c5cc(Cl)ccc5F)c4)ccnc3c2)CC1 [Example 73, N-[6-(5-Chloro-2-Fluorophenyl)Pyridazin-4-Yl]-7-[(1-Methylpiperidin-4-Yl)Oxy]Quinolin-4-Amine]",< 1
4,"Cc1nnc(-c2cc(Cl)ccc2F)cc1Nc1ccnc2[nH]c(C(=O)N(C)CCN3CCN(C)CC3)cc12 [Example 50, 4-{[6-(5-Chloro-2-Fluorophenyl)-3-Methylpyridazin-4-Yl]Amino}-N-Methyl-N-[2-(4-Methylpiperazin-1-Yl)Ethyl]-1H-Pyrrolo[2,3-b]Pyridine-2-Carboxamide]",< 1
5,"Cc1nnc(-c2cc(Cl)ccc2F)cc1Nc1ccnc(NC(=O)C2CCN(C)CC2)c1 [Example 88, N-(4-{[6-(5-Chloro-2-Fluorophenyl)-3-Methylpyridazin-4-Yl]Amino}Pyridin-2-Yl)-1-Methylpiperidine-4-Carboxamide]",1 to 5
6,"O=C(Oc1ccc2c(Nc3cnnc(-c4cc(Cl)ccc4F)c3)ccnc2c1)N1CCC(N2CCC2)CC1 [Example 134, 4-{[6-(5-Chloro-2-Fluorophenyl)Pyridazin-4-Yl]Amino}Quinolin-7-Yl 4-(Azetidin-1-Yl)Piperidine-1-Carboxylate]",< 1
7,"CC(C)c1ccc(F)c(-c2cc(Nc3ccnc4cc(OCCN5CCN(C)CC5)ccc34)cnn2)c1 [Example 37, N-{6-[2-Fluoro-5-(Propan-2-Yl)Phenyl]Pyridazin-4-Yl}-7-[2-(4-Methylpiperazin-1-Yl)Ethoxy]Quinolin-4-Amine]",< 1
8,"N#CCCN1CCN(CCOc2ccc3c(Nc4cnnc(-c5cc(Cl)ccc5F)c4)ccnc3c2)CC1 [Example 71, 3-(4-{2-[(4-{[6-(5-Chloro-2-Fluorophenyl)Pyridazin-4-Yl]Amino}Quinolin-7-Yl)Oxy]Ethyl}Piperazin-1-Yl)Propanenitrile]",< 1
9,"OCCN(CCO)CCN1CCN(CCOc2ccc3c(Nc4cnnc(-c5cc(Cl)ccc5F)c4)ccnc3c2)CC1 [Example 75, 2-{[2-(4-{2-[(4-{[6-(5-Chloro-2-Fluorophenyl)Pyridazin-4-Yl]Amino}Quinolin-7-Yl)Oxy]Ethyl}Piperazin-1-Yl)Ethyl](2-Hydroxyethyl)Amino}Ethan-1-Ol]",< 1
10,"Cc1nnc(-c2cc(Cl)ccc2F)cc1Nc1ccnc(NC(=O)N2CCC3(CC2)CN(C)C3)c1 [Example 149, N-(4-{[6-(5-Chloro-2-Fluorophenyl)-3-Methylpyridazin-4-Yl]Amino}Pyridin-2-Yl)-2-Methyl-2,7-Diazaspiro[3.5]Nonane-7-Carboxamide]",< 1
11,"Cc1nnc(-c2cc(Cl)ccc2F)cc1Nc1ccnc(NC(=O)CCN2CCN(C)CC2)c1 [Example 16, N-(4-{[6-(5-chloro-2-fluorophenyl)-3-methylpyridazin-4-yl]amino}pyridin-2-yl)-3-(4-methylpiperazin-1-yl)propanamide]",< 1
12,"COC(=O)CCc1nnc(-c2cc(Cl)ccc2F)cc1Nc1ccnc(NC(=O)CCN2CCN(C)CC2)c1 [Example 187, Methyl 3-[6-(5-Chloro-2-Fluorophenyl)-4-({2-[3-(4-Methylpiperazin-1-Yl)Propanamido]Pyridin-4-Yl}Amino)Pyridazin-3-Yl]Propanoate]",< 1
13,"CN1CC[C@H](OC(=O)c2ccc3c(Nc4cnnc(-c5cc(Cl)ccc5F)c4)ccnc3c2)C1 [Example 58, (3S)-1-Methylpyrrolidin-3-Yl 4-{[6-(5-Chloro-2-Fluorophenyl)Pyridazin-4-Yl]Amino}Quinoline-7-Carboxylate]",1 to 5
14,"CNC(=O)CCN1CCN(CCOc2ccc3c(Nc4cnnc(-c5cc(Cl)ccc5F)c4)ccnc3c2)CC1 [Example 63, 3-(4-{2-[(4-{[6-(5-Chloro-2-Fluorophenyl)Pyridazin-4-Yl]Amino}Quinolin-7-Yl)Oxy]Ethyl}Piperazin-1-Yl)-N-Methylpropanamide]",< 1
15,"CN1CCC(NC(=O)c2cc3c(Nc4cnnc(-c5cc(Cl)ccc5F)c4)ccnc3cn2)CC1 [Example 26, 4-{[6-(5-Chloro-2-Fluorophenyl)Pyridazin-4-Yl]Amino}-N-(1-Methylpiperidin-4-Yl)-1,7-Naphthyridine-6-Carboxamide]",1 to 5
16,"Nc1nccc(Nc2cnnc(-c3cc(Cl)ccc3F)c2)n1 [Example C2, N4-[6-(5-chloro-2-fluorophenyl)pyridazin-4-yl]pyrimidine-2,4-diamine, reference compound]",482
17,"Cc1nnc(-c2cc(Cl)ccc2F)cc1Nc1ccnc(NC(=O)CCN2CC[S+]([O-])CC2)c1 [Example 130, N-(4-{[6-(5-Chloro-2-Fluorophenyl)-3-Methylpyridazin-4-Yl]Amino}Pyridin-2-Yl)-3-(1-Oxo-1V-Thiomorpholin-4-Yl)Propanamide]",< 1
18,"Cc1nnc(-c2cc(Cl)ccc2F)cc1Nc1ccnc(NC(=O)CN2CCN(CC(F)(F)F)CC2)c1 [Example 131, N-(4-{[6-(5-Chloro-2-Fluorophenyl)-3-Methylpyridazin-4-Yl]Amino}Pyridin-2-Yl)-2-[14-(2,2,2-Trifluoroethyl)Piperazin-1-Yl]Acetamide]",< 1
